Assay results taken from patent US10426755B2, “Methods for inhibiting cancer cells” (Chang Gung Memorial Hospital, Chiayi, priority 2015, dated 2019).

Test system: lung cancer cell lines (A549 and chemotherapy-resistant/metastatic H460)
Assay: XTT proliferation assay, lung cancer cells
Assay type: cell-based
Details: DT 5, 10, 20 μM; gemcitabine hydrochloride and etoposide 10, 20 μM; 1-2 days; regardless of the dosage; also H460; FIG. 2
Protocol: The prostate cancer cells were plated at a density of 10^3 or 3×10^3 per well, in a 96-well plate, in a medium containing 10% Fetal bovine serum (FBS) (Gibco®, commercially available from Life Technologies, USA). Once the prostate cancer cells were attached to the culture dish, the 10% FBS medium was replaced with a second 10% FBS medium and each of the prostate cancer cell line was treated with 1, 5, and 10 μM of DT respectively for 1-2 days. The absorbance was measured using XTT assay kit (commercially available from Roche, Switzerland) at 492 nm using an ELISA reader (Bio-Rad Laboratories, USA). An in vitro evaluation of the effect of DT, gemcitabine (a chemotherapeutic agent) and etoposide (a chemotherapeutic agent) on the lung cancer cells was performed. The lung cancer cell lines, chemotherapy-resistant/metastatic H460 lung cancer cells (with pleural metastasis) and A549 lung cancer cells, were purchased from Bioresource Collection and Research Center, Taiwan. […] The absorbance was measured using XTT assay kit at 492 nm using an ELISA reader.

Row | Structure (SMILES) | inhibition of lung cancer proliferation, DT compared with gemcitabine and etoposide
1 | COc1cc([C@@H]2c3cc4c(cc3[C@@H](O[C@@H]3O[C@@H]5CO[C@@H](C)O[C@H]5[C@H](O)[C@H]3O)[C@H]3COC(=O)[C@H]23)OCO4)cc(OC)c1O [etoposide, reference compound] | DT is more effective than gemcitabine and etoposide
2 | Nc1ccn([C@@H]2O[C@H](CO)[C@@H](O)C2(F)F)c(=O)n1 [gemcitabine, reference compound] | DT is more effective than gemcitabine and etoposide
